Reference: article PMC6379104 (Clinical pharmacology and therapeutics, 2018)
“And” between values parts separate entries of the source, which are not always exact repeats. Equal values may be shown once. Read-outs that look alike come from different tables or passages of the source.

Tests used:
[1] = Population pharmacokinetic model of plasma disulfiram and four metabolites
cell-associated HIV DNA = details: three consecutive days of DSF; cited from earlier work
clinical = details: human, in vivo
[2] = test system: latent HIV in Bcl-2-transduced primary CD4+ T cells; details: cited from earlier work
[3] = test system: cell-associated unspliced (CA-US) HIV RNA; details: three consecutive days of DSF at all doses (500, 1000, 2000 mg); cited from earlier work
plasma HIV RNA [4] = format: in vivo, HIV-1
plasma HIV RNA [5] = details: DSF 500 mg for 14 days; cited from earlier work
plasma HIV RNA [6] = details: three consecutive days of DSF; cited from earlier work
[7] = test system: cell-associated unspliced (CA-US) HIV RNA; format: in vivo, HIV-1
[8] = in humans; cited from earlier work
CA-US HIV RNA = details: following administration of vorinostat; cited from earlier work
plasma HIV RNA [9] = details: following administration of vorinostat; cited from earlier work
[10] = final PK model, estimate (RSE %)
[11] = model estimate at AUC0–72 of 2270 mg*h/L (500 mg dose group median)

## CCN(CC)C(=O)SC[C@H](NC(=O)CC[C@H](N)C(=O)O)C(=O)NCC(=O)O [M4, carbamathione]
[1]; [10]
  Km (Michaelis-Menten constant, concentration at which elimination is half maximal): 543 (4.3) ng/mL
  V (volume of distribution): 0.581 (10.3) L

## CCN(CC)C(=S)SSC(=S)N(CC)CC [DSF, Disulfiram]
cell-associated HIV DNA
  change in CA-DNA: no significant differences
clinical
  Km: 0.217 µg/mL
[2]
  activation of latent HIV in vitro: reactivated latent HIV
[3]
  change in CA-US RNA: statistically significant dose-dependent increases
Plasma HIV RNA [4]; by day 31, 2000 mg group
  median change in plasma HIV RNA: 1.17 copies/mL
Plasma HIV RNA [4]; during the treatment dosing period, 500 mg group
  median change in plasma HIV RNA: -0.22 copies/mL
Plasma HIV RNA [4]; negative binomial regression models
  exposure-response between AUC0–72 and plasma HIV RNA: a statistically significant exposure-response was not observed
[1]; 3 consecutive daily doses
  time by which drug was completely eliminated: ≤ 72 h
[1]; [10]
  BV (%) in CL/F (between-subject variability): 36% and 36 (14) %
  V (volume of distribution): 1.29 (9.1) L
[1]; human, plasma, oral, V (volume of distribution), final PK model, estimate (RSE %)
  Vd: 1.3 L
Plasma HIV RNA [5]
  change in plasma HIV RNA: transient but non-statistically significant increases
Plasma HIV RNA [6]
  change in plasma HIV RNA: increased, but only at day 31 and only in participants receiving the highest dose (2000 mg)
[7]; exposure-response of AUC0–72 on CA-US HIV RNA
  AUC50: 1600 µg·h/L
[7]; increase in CA-US HIV RNA
  Emax: 78%
[7]; increase in CA-US HIV-1 RNA, estimate (RSE %)
  Emax (fraction increase): 78 (13.6)
[7]; [11]
  potential participants achieving >90% of Emax: over 70%
  potential participants achieving less than a third of Emax: 15%
[7]; model estimate at AUC0–72 of 3883 mg*h/L (lowest in 1000 mg dose group)
  potential participants achieving >98% of Emax: 95%
[7]; negative binomial PK/PD models, all three baseline values
  exposure-response relationship of AUC0–72 on CA-US RNA: statistically significant exposure-response relationship
[8]
  estimated half-life: about 7 hours

## O=C(CCCCCCC(=O)Nc1ccccc1)NO [vorinostat]
CA-US HIV RNA
  change in CA-US HIV RNA: significant increases
Plasma HIV RNA [9]
  change in plasma HIV RNA: a significant change in plasma HIV RNA was not observed

## CCN(CC)C(=S)SC [M2, diethyldithiocarbamate-methyl ester]
[2]
  activation of latent HIV in vitro: but not M2 (DDTC-Me), reactivated latent HIV
[1]; [10]
  Q (flow from central compartment to periphery): 0.0776 (14.0)
  V (volume of distribution): 0.00404 (8.0) L
  Vperiph (calculated peripheral volume): 28.9 (17.3) L

## CCN(CC)C(=O)[S+](C)[O-] (stereo not drawn) [M3, S-methyl-N,N-diethylthiolcarbamate sulfoxide]
[1]; [10]
  V (volume of distribution): 0.0647 (15.6) L

## CCN(CC)C(=S)S [M1, N,N-diethyldithiocarbamate]
[2]
  activation of latent HIV in vitro: reactivated latent HIV
[1]; [10]
  Km (Michaelis-Menten constant, concentration at which elimination is half maximal): 480 (6.2) ng/mL
  V (volume of distribution): 0.0906 (16.6) L
